Laboratory results reported in publication PMC4961458 (eLife, 2016).
No end group written: not given here.

Key:
PR-A = target: T1, PR-A (Homo sapiens, UniProt P06401); assay: PR-A transcriptional reporter assay, agonist mode (HEPG2 cells); type: cell-based; design: subcloning full-length PRa into pCMX; expressed in transfected cells; host or cells: HEPG2; conditions: % of maximal R5020-stimulated activity
T1 sequence (P06401 1-769 isoform P06401-2): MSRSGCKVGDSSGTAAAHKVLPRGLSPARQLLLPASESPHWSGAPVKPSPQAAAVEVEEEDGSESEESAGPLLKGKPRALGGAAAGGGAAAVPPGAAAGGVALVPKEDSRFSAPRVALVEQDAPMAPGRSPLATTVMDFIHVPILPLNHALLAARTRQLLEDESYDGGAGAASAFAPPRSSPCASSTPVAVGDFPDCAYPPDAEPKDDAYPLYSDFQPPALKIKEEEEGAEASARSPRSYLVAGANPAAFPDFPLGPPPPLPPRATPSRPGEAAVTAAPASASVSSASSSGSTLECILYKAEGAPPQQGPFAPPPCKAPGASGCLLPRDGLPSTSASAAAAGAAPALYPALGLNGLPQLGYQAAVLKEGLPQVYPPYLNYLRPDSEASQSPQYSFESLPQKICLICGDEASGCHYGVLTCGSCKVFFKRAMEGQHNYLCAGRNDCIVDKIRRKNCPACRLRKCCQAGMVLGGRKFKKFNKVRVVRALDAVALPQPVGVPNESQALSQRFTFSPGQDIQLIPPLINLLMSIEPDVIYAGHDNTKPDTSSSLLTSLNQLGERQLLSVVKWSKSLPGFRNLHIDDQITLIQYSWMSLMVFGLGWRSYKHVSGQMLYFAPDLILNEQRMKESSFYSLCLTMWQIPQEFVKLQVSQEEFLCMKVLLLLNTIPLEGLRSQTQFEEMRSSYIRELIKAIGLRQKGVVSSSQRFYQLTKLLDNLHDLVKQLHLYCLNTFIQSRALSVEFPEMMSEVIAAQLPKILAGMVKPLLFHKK
Experimental: (§1) Transcriptional assays were performed by seeding 100 μL of cells at a density of 250,000 cells/mL into 96-well cell culture plates in RPMI 1640 supplemented with 5% charcoal-stripped serum and allowed to attach overnight. […] Triplicate transfections were performed using 418 ng reporter vector (2X PRE-Luciferase for PR-A and PR-B, MMTV-Luciferase for MR), 50 ng CMVpRL (normalization vector), 10 ng NHR expression vector (CMX-PR-A, pCDNA-PR-B or 6R-MR), and 0.7 μL lipofectin. […] The final agonist concentration used in the antagonist assays was 1 nM. Following 24 hr incubation, the medium was removed and the cells were lysed in 40 μL of lysis buffer (25 mM Tris Phosphate, 2 mM CDTA, 10% Glycerol, 0.5% Triton X-100, 2 mM DTT). Firefly luciferase activity was measured immediately following the addition of 40 μL luciferase buffer (20 mM tricine, 0.1 mM EDTA, 1.07 mM (MgCO3)4 Mg(OH)2· 5H2O, 2.67 mM MgSO4, 33.3 mM DTT, 270 μM Coenzyme A, 470 μM luciferin, 530 μM ATP).

GR = target: T2, GR (Homo sapiens, UniProt P04150); assay: GR transcriptional reporter assay, agonist mode (CV1 cells); type: cell-based; conditions: CV-1; % of maximal dexamethasone-stimulated activity
T2 sequence (P04150 1-777): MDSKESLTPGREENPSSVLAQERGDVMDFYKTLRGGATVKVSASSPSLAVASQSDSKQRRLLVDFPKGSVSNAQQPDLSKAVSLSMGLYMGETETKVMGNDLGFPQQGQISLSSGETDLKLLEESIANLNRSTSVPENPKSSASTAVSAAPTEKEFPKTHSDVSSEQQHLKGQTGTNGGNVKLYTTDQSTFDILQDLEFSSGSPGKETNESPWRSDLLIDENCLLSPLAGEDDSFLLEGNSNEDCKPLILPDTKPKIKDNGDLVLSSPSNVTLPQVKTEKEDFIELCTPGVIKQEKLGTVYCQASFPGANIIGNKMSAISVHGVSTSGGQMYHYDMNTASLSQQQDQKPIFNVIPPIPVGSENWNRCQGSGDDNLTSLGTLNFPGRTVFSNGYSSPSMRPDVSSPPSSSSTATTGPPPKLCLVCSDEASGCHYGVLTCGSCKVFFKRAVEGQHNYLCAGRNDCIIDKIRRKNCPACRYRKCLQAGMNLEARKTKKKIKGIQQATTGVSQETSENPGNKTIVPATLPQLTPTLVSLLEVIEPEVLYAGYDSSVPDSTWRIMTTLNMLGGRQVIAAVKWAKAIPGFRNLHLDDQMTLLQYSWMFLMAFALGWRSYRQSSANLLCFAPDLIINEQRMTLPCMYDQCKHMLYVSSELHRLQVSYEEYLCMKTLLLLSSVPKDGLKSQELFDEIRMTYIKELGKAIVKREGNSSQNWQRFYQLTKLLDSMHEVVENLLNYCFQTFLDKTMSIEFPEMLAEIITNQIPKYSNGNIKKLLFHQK
Experimental: CV1 cells were maintained in MEM supplemented with 10% FBS. Transcriptional assays were performed by seeding 12 mL of cells at a density of 250,000 cells/mL into a T-75 cell culture flask in MEM supplemented with 5% charcoal-stripped serum and allowed to attach overnight. Cells were transiently transfected using FuGENE 6 (Roche Applied Science). […] Transfected cells were incubated overnight then split into four 96-well tissue culture plates and incubated for 4 hr followed by compound addition. […] The final agonist concentration used in the antagonist assays was 10 nM.

PR-B = target: T3, PR-B (Homo sapiens, UniProt P06401); assay: PR-B transcriptional reporter assay, agonist mode (HEPG2 cells); type: cell-based; conditions: % of maximal R5020-stimulated activity
T3 construct: cloning full-length human PRb into pCDNA; expressed in transfected cells; host or cells: HEPG2
T3 sequence (P06401 1-933): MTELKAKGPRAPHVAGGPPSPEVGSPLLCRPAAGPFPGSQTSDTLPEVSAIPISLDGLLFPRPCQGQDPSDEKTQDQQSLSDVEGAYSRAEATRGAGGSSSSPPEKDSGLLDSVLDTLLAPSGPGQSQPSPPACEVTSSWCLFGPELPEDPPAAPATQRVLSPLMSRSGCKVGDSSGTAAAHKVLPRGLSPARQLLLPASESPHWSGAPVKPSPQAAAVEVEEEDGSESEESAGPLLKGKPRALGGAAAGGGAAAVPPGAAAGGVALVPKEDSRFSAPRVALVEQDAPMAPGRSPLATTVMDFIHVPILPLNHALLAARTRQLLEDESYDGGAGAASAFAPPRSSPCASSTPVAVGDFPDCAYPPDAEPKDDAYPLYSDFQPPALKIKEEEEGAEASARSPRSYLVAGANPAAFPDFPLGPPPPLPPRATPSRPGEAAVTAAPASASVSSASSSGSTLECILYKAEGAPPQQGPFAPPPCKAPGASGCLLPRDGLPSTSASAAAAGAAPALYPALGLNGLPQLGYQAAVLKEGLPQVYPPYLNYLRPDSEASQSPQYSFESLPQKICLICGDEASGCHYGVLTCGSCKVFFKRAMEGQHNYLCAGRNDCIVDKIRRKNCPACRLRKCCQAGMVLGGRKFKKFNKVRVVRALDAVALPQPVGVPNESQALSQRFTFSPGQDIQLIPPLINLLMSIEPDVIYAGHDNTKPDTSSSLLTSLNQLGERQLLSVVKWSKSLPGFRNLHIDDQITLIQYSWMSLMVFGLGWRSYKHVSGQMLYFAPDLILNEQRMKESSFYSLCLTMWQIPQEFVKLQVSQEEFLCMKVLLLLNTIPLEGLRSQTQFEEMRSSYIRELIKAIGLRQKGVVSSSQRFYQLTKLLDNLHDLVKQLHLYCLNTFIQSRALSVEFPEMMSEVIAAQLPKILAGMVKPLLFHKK

MR = target: T4, MR (Homo sapiens, UniProt P08235); assay: MR transcriptional reporter assay, agonist mode (HEPG2 cells); type: cell-based; conditions: % of maximal aldosterone-stimulated activity
T4 construct: expressed in transfected cells; host or cells: HEPG2
T4 sequence (P08235 1-984): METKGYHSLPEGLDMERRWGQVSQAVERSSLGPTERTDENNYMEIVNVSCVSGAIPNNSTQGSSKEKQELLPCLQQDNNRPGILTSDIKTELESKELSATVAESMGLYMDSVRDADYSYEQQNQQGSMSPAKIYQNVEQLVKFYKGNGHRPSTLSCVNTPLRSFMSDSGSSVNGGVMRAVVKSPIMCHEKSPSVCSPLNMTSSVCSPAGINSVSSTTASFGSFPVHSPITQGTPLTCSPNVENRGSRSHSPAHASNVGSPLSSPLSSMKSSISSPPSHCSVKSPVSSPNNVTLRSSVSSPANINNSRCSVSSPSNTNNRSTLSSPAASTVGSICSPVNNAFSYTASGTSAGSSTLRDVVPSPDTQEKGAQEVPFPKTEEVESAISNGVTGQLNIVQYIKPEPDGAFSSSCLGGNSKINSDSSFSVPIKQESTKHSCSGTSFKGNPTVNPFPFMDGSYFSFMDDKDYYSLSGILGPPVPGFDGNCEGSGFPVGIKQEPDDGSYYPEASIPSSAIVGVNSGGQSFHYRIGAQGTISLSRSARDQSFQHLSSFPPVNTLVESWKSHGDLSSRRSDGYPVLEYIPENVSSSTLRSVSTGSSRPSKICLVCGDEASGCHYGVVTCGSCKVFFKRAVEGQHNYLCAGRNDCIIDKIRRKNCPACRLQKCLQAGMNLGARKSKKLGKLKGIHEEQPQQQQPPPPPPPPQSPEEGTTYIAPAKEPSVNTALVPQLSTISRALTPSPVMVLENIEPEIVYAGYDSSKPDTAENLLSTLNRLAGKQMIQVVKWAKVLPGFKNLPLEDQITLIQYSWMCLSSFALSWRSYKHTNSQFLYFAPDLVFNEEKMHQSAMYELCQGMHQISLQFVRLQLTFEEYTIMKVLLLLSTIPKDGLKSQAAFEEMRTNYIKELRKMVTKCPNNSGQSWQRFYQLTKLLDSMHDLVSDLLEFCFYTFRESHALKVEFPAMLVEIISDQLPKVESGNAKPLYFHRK
Experimental: as §1

[1] = target: T5, human estrogen receptor alpha, GST-tagged ESR1 ligand binding domain, residues S282-V595, wild-type sequence (human, UniProt P03372 282-595); assay: FRET or BRET; cell-free TR-FRET PGC1α recruitment assay; GST-ERα LBD (3x solution 22 nM) detected with Tb-anti-GST antibody (3x mix 15 nM), Fluorescein-PGC1α peptide (3x mix 750 nM), estradiol (3x mix 12 nM; agonist at EC80), TR-FRET Co-regulator Buffer E with 7.5 mM DTT, 2 hr at room temperature; GDC-0810 titrated as small-molecule competitor; conditions: both partners purified
T5 construct: Detected in the TR-FRET assay through a LanthaScreen Tb-anti-GST antibody; also called ER.WT; ERα LBD
T5 sequence (looked up): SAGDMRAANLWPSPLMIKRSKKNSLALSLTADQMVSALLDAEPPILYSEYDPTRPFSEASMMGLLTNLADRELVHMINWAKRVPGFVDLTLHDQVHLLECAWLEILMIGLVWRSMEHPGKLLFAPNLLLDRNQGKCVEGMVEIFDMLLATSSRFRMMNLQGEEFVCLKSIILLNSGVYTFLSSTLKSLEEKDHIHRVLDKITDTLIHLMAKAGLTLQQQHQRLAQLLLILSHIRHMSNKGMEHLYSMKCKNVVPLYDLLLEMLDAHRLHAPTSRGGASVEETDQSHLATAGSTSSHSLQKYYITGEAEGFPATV

CC#C[C@]1(O)CC[C@H]2[C@@H]3CCC4=CC(=O)CCC4=C3[C@@H](c3ccc(N(C)C)cc3)C[C@@]21C [RU-486]
Emax (PR-A): 13.3 ± 10.2% | Emax (GR): 8.06 ± 0.66% | Emax (PR-B): 3.25 ± 1.17%

CC(=O)S[C@@H]1CC2=CC(=O)CC[C@]2(C)[C@H]2CC[C@@]3(C)[C@@H](CC[C@@]34CCC(=O)O4)[C@H]12 [Spironolactone]
Emax (MR): 6.24 ± 0.37%

B1: Fluorescein-PGC1α peptide (peptide)
peptide: EAEEPSLLKKLLLAPANTQ
modifications: also: fluorescein (position not given here)
notes: source: bought: Life Technologies PV4421
binding result [1]: binds
